Source: PubChem BioAssay AID858 (Vanderbilt High Throughput Screening Facility, 2007)
Active and inactive are the calls of the source.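 The calls were made as follows: active = at least two of three replicate dose series yielding a converging curve fit, whether well or thinly supported; inactive = the rest.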

Biological target: D(1A) dopamine receptor (Homo sapiens) (UniProt P21728)
Assay: concentration-dependent D1 reporter signal change – cell-based, CRE-luciferase, HEK293, dopamine EC30, D1 allosteric modulator project, dose response (AID 858);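 also: HEK 293 cells bearing human D1 receptor stimulated by dopamine at its EC30; luciferase light from a cAMP response element reporter gene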

Chain of D(1A) dopamine receptor (Homo sapiens) (P21728 whole entry, looked up): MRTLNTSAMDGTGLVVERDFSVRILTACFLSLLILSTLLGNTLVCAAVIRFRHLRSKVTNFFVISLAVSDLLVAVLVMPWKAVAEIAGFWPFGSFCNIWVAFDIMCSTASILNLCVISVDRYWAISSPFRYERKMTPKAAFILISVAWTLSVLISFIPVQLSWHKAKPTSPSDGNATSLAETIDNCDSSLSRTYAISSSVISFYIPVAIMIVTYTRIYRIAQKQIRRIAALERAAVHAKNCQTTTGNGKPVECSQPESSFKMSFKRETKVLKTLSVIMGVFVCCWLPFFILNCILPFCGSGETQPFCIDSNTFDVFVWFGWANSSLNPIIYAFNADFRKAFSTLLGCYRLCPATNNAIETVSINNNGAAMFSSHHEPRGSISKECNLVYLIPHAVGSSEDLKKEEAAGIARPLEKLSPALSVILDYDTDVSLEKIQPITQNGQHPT

| Compound | outcome | EC50 |
| --- | --- | --- |
| CCOc1cc(C2CC(=O)NC(SCC)=C2C#N)ccc1O (stereo not drawn) | inactive |  |
| CCCCCn1c(SCC(=O)OC)nc2c1c(=O)[nH]c(=O)n2C | inactive |  |
| COC(=O)c1sc(=S)sc1C(=O)OC | inactive |  |
| Cc1cc(SCC(=O)N2CCC(c3noc4ccc(F)cc34)CC2)nc2ccccc12 | inactive |  |
| Cc1ccc(OCCN2C(=O)OC(C)(C)C2(C)O)cc1 (stereo not drawn) | inactive |  |
| CCn1c(=O)c2cc(S(=O)(=O)NC3CCCCC3)ccc2n(CC)c1=O | inactive |  |
| Cc1cc2cc(CN(CCN3CCOCC3)C(=O)Nc3ccccc3F)c(=O)[nH]c2cc1C | inactive |  |
| CC(C)Sc1nc2c(c(=O)n1C)SC(C)C2 (stereo not drawn) | inactive |  |
| Cc1cc(Br)c2c(c1)=C(c1sc(N3CCCCCC3)nc1O)C(=O)N=2 |  | 1.35 µM |
| CCOC(=O)c1cc2c(=O)n3ccccc3nc2n(CCCOC)c1=NC(=O)C(C)(C)C | inactive |  |
| COC(=O)c1cc(=O)n(Cc2ccco2)c(=Nc2ccc(F)c(Cl)c2)s1 | inactive |  |
| Cn1c(=O)c2c(nc(SCCCO)n2Cc2ccccc2Cl)n(C)c1=O | inactive |  |
| CCOc1ccc(CC(=O)Nc2c(C(N)=O)oc3ccccc23)cc1OCC | inactive |  |
| COc1ncnc2c1N[C@@](C)(O)c1c(F)c(F)c(F)c(F)c1S2 | inactive |  |
| C=C(C)CSc1nc2c(cc1C#N)CCC2 | inactive |  |
| COc1ccc(-c2noc(CCC(N)=O)n2)cc1OC | inactive |  |
| COc1ccccc1NC(=O)N(Cc1ccc2c(c1)OCO2)Cc1nc2ccccc2c(=O)[nH]1 | inactive |  |
| c1ccc(C2CC(c3ccccc3)n3ncnc3N2)cc1 (stereo not drawn) | inactive |  |
| CCCC(=O)Nc1ccc(NC(=O)C2CC2)cn1 |  | 0.0224 µM |
| CN1CCN(CC(O)COCc2ccc3c(c2)OCO3)CC1 (stereo not drawn) | inactive |  |

Other lines, results leading:

| outcome | EC50 | Compound |
| --- | --- | --- |
| inactive |  | CC(C)Cn1c(=O)c(C(=O)Nc2cnccn2)c(O)c2ccccc21 |
|  | 2.33 µM | CNc1nc(C)c(C#N)c(-c2ccccc2)c1C(C)=O |
| inactive |  | Cn1c(=O)c2c(-c3ccccc3)n(N3CCOCC3)cc2n(C)c1=O |
|  | 2.38 µM | CCOc1ccc(C2Oc3nc(SC)nnc3-c3ccccc3N2C(C)=O)cc1OC (stereo not drawn) |
| inactive |  | COc1ccc2c(c1)C(=O)N(c1ccccc1OC)C(=O)C2(C)C |
| inactive |  | CCn1cc(C(=O)NCC2COc3ccccc3O2)c2cc(OC)c(OC)cc2c1=O (stereo not drawn) |
| inactive |  | Cc1cc(C)c(C#N)c(SCc2ccc(C#N)cc2)n1 |
| inactive |  | O=C(NCc1cccs1)C1CC(c2ccccc2O)=NO1 (stereo not drawn) |
| inactive |  | Cc1onc(-c2ccccc2)c1C(=O)Nc1ccc2c(c1)OCO2 |
| inactive |  | CCCCNC(=O)c1cc(-c2ccc(OC)c(OC)c2)on1 |
| inactive |  | CC(=O)c1cc(C#N)c(SCC(=O)OC(C)(C)C)nc1C |
| inactive |  | c1ccc(-c2nc3ccccc3c3nncn23)cc1 |
| inactive |  | CSc1nc2c(c(=O)n1-c1ccccc1)SCC2 |
| inactive |  | CCOC(=O)CSc1nc2c(sc(=S)n2Cc2ccco2)c(=O)n1-c1ccccc1 |
| inactive |  | Cc1ccc(-c2nc3ncccn3c2NC(=O)C2CC2)cc1 |
| inactive |  | CCOC(=O)c1nn(-c2ccccc2C)c(=O)c(C#N)c1C |
| inactive |  | Nc1nc(SCC(=O)OCc2ccccc2)[nH]c(=O)c1NC(=O)c1ccco1 |
| inactive |  | CCC(=O)n1nc(-c2cccnc2)nc1NCc1ccc(OC)cc1 |
